Converted amounts (≈) assume the structure as drawn.

Data on two compounds can be found in patent US4505929A, “Sulfur-substituted diphenyl ethers having antiviral activity” (The Dow Chemical Company, priority 1982, dated 1985).

Type in all cases: cell-based
The test system of one data set is rhinovirus type 8 (RV-8). The experiment in a line: Tissue culture antiviral test (HeLa cells), RV-8. The following applies: Enterovirus, 48 and 72 hours post-treatment, read-out: Lowest concentration necessary to cause a 50 percent reduction in cytopathic effect, RV-8. On the procedure: (§1) Monolayered HeLa cells in 16 millimeter (mm) tissue culture dishes were treated with 1 ml of culture medium (Eagles medium supplemented with fetal calf serum) containing subject compound at an appropriate concentration or containing no compound at all. Culture media such as those described herein are more fully described in standard texts, as for example, Kuchler's Biochemical Methods in Cell Culture and Virology, Dowden, Hutchinson and Ross, Inc., Stroudsberg, PA (1977). Following treatment, cells were challenged with 0.05 ml of rhinovirus type 1A (RV-1A), rhinovirus type 2 (RV-2) or Coxsackie A21 virus (Cox A21) in culture medium. Some of the compounds were also tested against rhinovirus type 5 (RV-5), rhinovirus type 8 (RV-8) or rhinovirus type 64 (RV-64). Cell controls received no viruses.
(§2) ^xx Lowest concentration of the compound (μg/ml) necessary to caus
(§3) a 50 percent reduction in cytopathic effect.

Data set [1] deals with rhinovirus type 1A (RV-1A). The experiment in a line: Tissue culture antiviral test (HeLa cells), RV-1A. Conditions: Enterovirus, 48 and 72 hours post-treatment, read-out: Lowest concentration necessary to cause a 50 percent reduction in cytopathic effect, RV-1A. As to the method:
as §1, §2, §3
Background: Cytopathic effects are the visible damage that an infection or toxin causes in cultured cells.

The subject of data set [2] is Coxsackie A21 virus (Cox A21). As to the kind of experiment: Tissue culture antiviral test (HeLa cells), Cox A21. Conditions: 48 and 72 hours post-treatment, read-out: Lowest concentration necessary to cause a 50 percent reduction in cytopathic effect, Cox A21. As to the method: as §1, §2, §3
The nature of data set [3]: Cytotoxicity to HeLa cells in tissue culture testing. Conditions: human, concentration found to be toxic to the cell, observed at 48 and 72 hours, read-out: Cytotoxicity. On the procedure:
as §1
^x Cytotoxicity figures represent the concentration of the compound,
micrograms/milliliter (μg/ml) found to be toxic to the cell.
means "approximately "; "<<" "considerably less than " and "G.I." means

The test system of a further data set is rhinovirus type 5 (RV-5). As to the kind of experiment: Tissue culture antiviral test (HeLa cells), RV-5. Conditions: Enterovirus, 48 and 72 hours post-treatment, read-out: Lowest concentration necessary to cause a 50 percent reduction in cytopathic effect, RV-5. On the procedure: as §1, §2, §3
For a further data set, the system named is rhinovirus type 2 (RV-2). As to the kind of experiment: Tissue culture antiviral test (HeLa cells), RV-2. Conditions: Enterovirus, 48 and 72 hours post-treatment, read-out: Lowest concentration necessary to cause a 50 percent reduction in cytopathic effect, RV-2. As to the method: as §1, §2, §3
Data set [4] deals with rhinovirus type 64 (RV-64). As to the kind of experiment: Tissue culture antiviral test (HeLa cells), RV-64. Conditions: Enterovirus, 48 and 72 hours post-treatment, read-out: Lowest concentration necessary to cause a 50 percent reduction in cytopathic effect, RV-64. On the procedure: as §1, §2, §3

Regarding `CS(=O)(=O)c1ccc(Oc2ccc(Cc3ccccc3)cc2)cc1` [Example 20, 1-(4-(Methylsulfonyl)phenoxy)-4-(phenylmethyl)benzene], the EC50 in the data set with rhinovirus type 8 (RV-8) amounted to 5 µg/mL (≈ 14.8 µM); in data set [1] it was 2.5 µg/mL (≈ 7.39 µM); in data set [2], 2.5 µg/mL (≈ 7.39 µM); in the data set with rhinovirus type 5 (RV-5), 5 µg/mL (≈ 14.8 µM); in the data set with rhinovirus type 2 (RV-2), 1.25 µg/mL (≈ 3.69 µM); in data set [4] it was 2.5 µg/mL (≈ 7.39 µM). Further, the MCC in data set [3] was 5 µg/mL.

On to `CC(=O)c1ccc(Oc2ccc(S(C)(=O)=O)cc2)cc1` [Example 3, 1-(4-(4-(Methylsulfonyl)phenoxy)phenyl)ethanone], for which the EC50 in the data set on rhinovirus type 8 (RV-8) was 25 µg/mL (≈ 86.1 µM); in data set [1], 25 µg/mL (≈ 86.1 µM); in data set [2] it was under 6.25 µg/mL; in the data set with rhinovirus type 5 (RV-5) it was 25 µg/mL (≈ 86.1 µM); with rhinovirus type 2 (RV-2) it was 12.5 µg/mL (≈ 43.1 µM); in data set [4], under 6.25 µg/mL. For the same compound, the MCC in data set [3] was 50 µg/mL.
